The text below walks through data of PMC9975351 (Frontiers in Pharmacology, 2023).

Data set [1] in a line: Metabolic stability and metabolite formation in pooled human liver microsomes with NADPH and/or UDPGA. The format is in vitro ADME. As to conditions: human, microsomes, pH 7.4, Half-life. As to the method: Microsomal incubation was conducted in triplicate using 0.1 M potassium phosphate buffer (PPB, pH 7.4) in eight-well tube strips in an 8 × 12 rack (1.2 mL; VWR, Emeryville, CA, United States). […] The mixture was pre-incubated at 37°C with shaking at approximately 100 rpm for 5 min. UGT glucuronidation was performed with HLMs (1 mg/mL) and alamethicin (25 μg/mg microsomal protein) in a 100-mM PPB (pH 7.4) solution on ice for 15 min. […] CYP, UGT, and combined reactions were initiated by addition of the NADPH regenerating system, UDPGA (1 mM), and both, respectively. […] The incubation mixtures were then centrifuged at 2,000 × g and 4°C for 20 min, and the supernatants were analyzed by LC-QTOF HRMS.
The incubation mixtures were pre-incubated at 37°C in a shaking water bath at approximately 100 rpm for 5 min. Reactions were initiated by the addition of an NADPH-regenerating system. The reaction was terminated, centrifuged then analyzed using the same method described above.
(§1) In the microsomal stability analysis, degradation half-life (t½) values were calculated using the following equation: t½=0.693/k where k is the first-order degradation rate constant, estimated by one-phase exponential-decay non-linear regression of the degradation time-course data using Graph Pad Prism 8.0 (Graph Pad Software Inc., San Diego, CA, United States). In vitro metabolic stability parameters, microsomal intrinsic clearance (CLint,mic), apparent intrinsic clearance (CL′int), and hepatic clearance (CLh), were calculated according to the well-stirred model approach ([Pang and Rowland, 1977]; [Baranczewski et al., 2006]). The apparent kinetic parameters of GRL0617 metabolism were determined by fitting a one-enzyme Michaelis-Menten equation. […] All data are presented as mean ± SD. Data were compared between groups using the unpaired Student’s t-test. The significance level was set at p < 0.05, unless indicated otherwise.
In general terms: Liver microsomes are a subcellular fraction often used to study metabolism.

The next data set addresses T1, CES1 (Homo sapiens, UniProt P23141).
T1 construct: purchased Cypex (Dundee, UK)
T1 sequence (P23141 18-567): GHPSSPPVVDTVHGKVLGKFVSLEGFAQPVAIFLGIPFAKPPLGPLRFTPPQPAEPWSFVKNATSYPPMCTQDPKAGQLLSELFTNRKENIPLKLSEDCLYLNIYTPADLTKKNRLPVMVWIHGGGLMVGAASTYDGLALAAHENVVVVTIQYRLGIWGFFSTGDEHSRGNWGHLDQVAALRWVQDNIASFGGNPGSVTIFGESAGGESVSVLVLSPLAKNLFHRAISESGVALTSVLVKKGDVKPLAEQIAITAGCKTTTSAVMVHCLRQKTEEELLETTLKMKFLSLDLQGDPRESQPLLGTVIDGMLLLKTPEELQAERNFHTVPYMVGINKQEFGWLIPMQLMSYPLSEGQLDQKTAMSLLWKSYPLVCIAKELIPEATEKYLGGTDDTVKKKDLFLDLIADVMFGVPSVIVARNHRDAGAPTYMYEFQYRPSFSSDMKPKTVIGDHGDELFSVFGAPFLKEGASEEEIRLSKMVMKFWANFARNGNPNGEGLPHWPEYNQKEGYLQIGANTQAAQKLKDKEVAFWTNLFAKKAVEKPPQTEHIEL
In words: Incubation with recombinant CES1. The data set is classed as in vitro ADME. As to conditions: 1 µM. The protocol:
(§2) All other generated metabolites area was less than 1% of the parent area/internal standard area. […] HY-17542 underwent deacetylation rapidly in HLM incubated with or without NADPH (Figures 4A, B). The calculated half-lives for NADPH-dependent metabolism and NADPH-independent degradation were 5.26 and 10.83 min, respectively. We incubated HY-17542 without HLM and NADPH to 180 min in the phosphate buffer condition. […] CES 1 or 2 was possible enzyme responsible for the deacetylation. […] HY-17542 metabolites in HLM incubated with NADPH are presented in Figures 4C, D. M1 and M3 were also detected from HY-17542 in a time-dependent manner.
(§3) FIGURE 4 Metabolic stability of HY-17542 in HLMs. (A) 1 µM of HY-17542 was incubated with HLMs in the presence or absence of NADPH and incubated with recombinant CES 1 or CES2. […] (C) Formation of M1 in the incubation of 1 µM of HY-17542 in HLMs with NADPH. (D) Formation of M3 in the incubation of 1 µM of HY-17542 in HLMs with NADPH. Data are presented as mean ± SD from three independent samples (n = 3). (E) Representative chromatogram of GRL0617 and its metabolites in the presence of a NADPH-generating system from QTOF MS analysis.

The format of data set [2] is physicochemical. As to conditions: human, microsomes, 3 h. As to the method:
as §2

Another data set deals with T2, CES2 (Homo sapiens, UniProt O00748).
T2 construct: purchased Cypex (Dundee, UK)
T2 sequence (O00748 27-559): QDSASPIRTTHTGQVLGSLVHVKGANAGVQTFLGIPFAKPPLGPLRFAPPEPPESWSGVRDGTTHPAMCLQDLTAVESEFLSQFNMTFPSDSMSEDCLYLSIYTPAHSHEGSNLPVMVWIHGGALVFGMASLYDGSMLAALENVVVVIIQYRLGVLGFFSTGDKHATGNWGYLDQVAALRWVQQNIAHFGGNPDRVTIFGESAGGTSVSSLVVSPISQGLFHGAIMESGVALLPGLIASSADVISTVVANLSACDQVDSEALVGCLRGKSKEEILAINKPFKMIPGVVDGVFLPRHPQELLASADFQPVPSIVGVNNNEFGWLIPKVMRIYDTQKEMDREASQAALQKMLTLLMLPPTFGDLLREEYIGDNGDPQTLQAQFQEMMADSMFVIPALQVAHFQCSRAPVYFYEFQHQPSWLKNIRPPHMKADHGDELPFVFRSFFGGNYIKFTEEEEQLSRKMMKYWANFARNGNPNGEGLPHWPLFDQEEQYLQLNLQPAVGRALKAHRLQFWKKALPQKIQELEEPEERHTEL
In words: Incubation with recombinant CES2. The data set is classed as in vitro ADME. As to conditions: 1 µM. The protocol: as §2, §3

Substrate in data set [3]: Cc1ccc(N)cc1C(=O)N[C@H](C)c1cccc2ccccc12
In words: not read. The format is in vitro ADME, human. As to conditions: other: M1 formation, recombinant CYP3A5, 10 min; 95% CI in parentheses; pH 7.4; 37.0 °C. The protocol: Reactions were conducted in triplicate using 0.1 M PPB (pH 7.4) in eight-well tube strips in an 8 × 12 rack. […] The mixture was pre-incubated at 37°C with shaking at approximately 100 rpm for 5 min. Reactions were initiated by the addition of the NADPH-regenerating system and quenched with 200 µL ice-cold acetonitrile containing 50 nM CBZ. The samples were centrifuged at 1,000 × g and 4°C for 20 min, and the supernatants were subjected to LC-QTOF HRMS. […] The reaction was incubated, initiated, terminated, centrifuged then analyzed using the same method described above.
as §1, with “Data were compared between groups using the unpaired Student’s t-test. The significance level was set at p < 0.05, unless indicated otherwise.” left out

Substrate in data set [4]: Cc1ccc(N)cc1C(=O)N[C@H](C)c1cccc2ccccc12
In words: not read. As to conditions: other: M1 formation, recombinant CYP2D6, 10 min; 95% CI in parentheses; pH 7.4; 37.0 °C.

As for `CC(=O)Nc1ccc(C)c(C(=O)N[C@H](C)c2cccc3ccccc23)c1` [HY-17542, 5-[acetylamino]-2-methyl-N-[(1R)-1-(1-naphthalenyl)ethyl]benzamide], the half-life at 1 µM in data set [1] was 5.26 min; in data set [1] (NADPH-independent degradation) it was 10.8 min. Besides, the “Effect on HY-17542 concentration” value at CES1 is on record as “did not affect HY-17542 concentration”. Also, the Remaining compound in data set [2] turned out to be 99.89 ± 7.69%. Moreover, the HY-17542 concentration remaining at CES2 turned out to be 88.01 ± 10.5%.

B1: CYP3A5 (Homo sapiens) (protein)
chain: MDLIPNLAVETWLLLAVSLVLLYLYGTRTHGLFKRLGIPGPTPLPLLGNVLSYRQGLWKFDTECYKKYGKMWGTYEGQLPVLAITDPDVIRTVLVKECYSVFTNRRSLGPVGFMKSAISLAEDEEWKRIRSLLSPTFTSGKLKEMFPIIAQYGDVLVRNLRREAEKGKPVTLKDIFGAYSMDVITGTSFGVNIDSLNNPQDPFVESTKKFLKFGFLDPLFLSIILFPFLTPVFEALNVSLFPKDTINFLSKSVNRMKKSRLNDKQKHRLDFLQLMIDSQNSKETESHKALSDLELAAQSIIFIFAGYETTSSVLSFTLYELATHPDVQQKLQKEIDAVLPNKAPPTYDAVVQMEYLDMVVNETLRLFPVAIRLERTCKKDVEINGVFIPKGSMVVIPTYALHHDPKYWTEPEEFRPERFSKKKDSIDPYIYTPFGTGPRNCIGMRFALMNMKLALIRVLQNFSFKPCKETQIPLKLDTQGLLQPEKPIVLKVDSRDGTLSGE
notes: purchased Cypex (Dundee, UK); host or cells: bactosomes (bacterial membranes)
Turning to B1, the Km in the data set “not read [3]” is 8.5 (7.6–9.5) µM.

B2: CYP2D6 (Homo sapiens) (protein)
chain: MGLEALVPLAVIVAIFLLLVDLMHRRQRWAARYPPGPLPLPGLGNLLHVDFQNTPYCFDQLRRRFGDVFSLQLAWTPVVVLNGLAAVREALVTHGEDTADRPPVPITQILGFGPRSQGVFLARYGPAWREQRRFSVSTLRNLGLGKKSLEQWVTEEAACLCAAFANHSGRPFRPNGLLDKAVSNVIASLTCGRRFEYDDPRFLRLLDLAQEGLKEESGFLREVLNAVPVLLHIPALAGKVLRFQKAFLTQLDELLTEHRMTWDPAQPPRDLTEAFLAEMEKAKGNPESSFNDENLRIVVADLFSAGMVTTSTTLAWGLLLMILHPDVQRRVQQEIDDVIGQVRRPEMGDQAHMPYTTAVIHEVQRFGDIVPLGVTHMTSRDIEVQGFRIPKGTTLITNLSSVLKDEAVWEKPFRFHPEHFLDAQGHFVKPEAFLPFSAGRRACLGEPLARMELFLFFTSLLQHFSFSVPTGQPRPSHHGVFAFLVSPSPYELCAVPR
On to B2, for which, in “not read [4]”, the Km is on record as 85.1 (69.4–107.8) µM.
